Data as given in US9241993B2, “Inhibitors of branched-chain-aminotransferase-1 (BCAT1) for the treatment of brain tumors” (Deutsches Krebsforschungszentrum, priority 2011, dated 2016).

Tests used:
Assay type in all cases: cell-based, human
U373-MG = experiment: Cell-cycle analysis (propidium iodide, flow cytometry), sub-G1 fraction; conditions: 20 mM, 20 hours after treatment
Procedure: (§1) Cell-cycle analysis was performed 20 hours after treatment with gabapentin and 6 days after lentiviral transduction. Nicoletti buffer (0.1% sodium citrate, pH7.4, 0.05% Triton X-100, 50 μg propidium iodide) was added to the wells containing both dead and living cells. After 4 hours in the dark at 4° C., DNA content was analysed by flow cytometry using FACS Canto II (BD Biosciences, San Jose, Calif., USA). FACS Diva software was used to quantify the distribution of cells in each cell-cycle phase: sub-G1 (dead cells), G1, S, and G2/M. For investigation of apoptotic activity after lentivira knockdown NCH421k cells were incubated with annexin V-P (Phycoerythrin) and 7-AAD (7-aminoactinomycin D, BD Biosciences) for 15 minutes in the dark, immediately followed by flow cytometry.

HS683 = experiment: as above; conditions: HS683, 20 mM, 20 hours after treatment
Procedure: as §1

U87-MG = experiment: as above; conditions: 20 mM, 20 hours after treatment
Procedure: as §1

glioma cells = experiment: Glutamate quantification in supernatant of gabapentin-treated cells; conditions: 20 mM, 6 and 12 hours after start of treatment
Procedure: (§2) (i) Treatment with dimethyl-α-ketoglutarate and Gabapentin 5×10^4 cells/well were seeded in 24-well plates in a total volume of 500 μl cell culture medium. The medium was removed 16 hours after seeding the cells, and replaced with 500 μl medium containing 5 mM or 10 mM dimethyl-α-ketoglutarate (Dimethyl 2-oxoglutarate; Sigma-Aldrich) or 5 mM, 10 mM or 20 mM gabapentin ([…]; Sigma-Aldrich). Corresponding volumes of 200 mM HEPES buffer (pH 7.4) were added to the respective control wells.
Glutamate concentration in the supernatant of cells treated with gabapentin was determined using the glutamine/glutamate determination Kit (GLN-1; Sigma-Aldrich) according to the manufacturer's instructions. The reaction volumes were scaled down to 100 μl total volume and absorbance was measured in triplicate in a microplate (Corning° 96 Well Clear Flat Bottom UV-Transparent Microplate) using a Tecan Infinite M200 plate reader (Tecan, Austria). Data were normalised to the number of cells per well.

U-373MG cells = experiment: 1H-NMR spectroscopy of cell extracts, intracellular BCAA levels; conditions: 20 mM gabapentin for 20 hours vs control
Procedure: as §2
(§3) Cells were harvested by trypsinization, washed once with ice-cold PBS, and the cell pellet was frozen at −80° C. Typically 1×10^8 harvested cells were subjected to perchloric acid extraction followed by KOH neutralization according to published protocols^50. Briefly, 2 mL of ice-cold 1 N HClO4 were added to a frozen pellet of harvested cells. The pellet was disrupted using a Teflon pestle and a glass homogeniser. 1 mL of ice-cold water was added to the lysate, vortexed for 90 s and centrifuged at 10000×g for 10 min at 4° C. The pellet was re-extracted and the supernatants were combined. The extract was neutralised with KOH and the pH was adjusted to 6.5-7.0 Precipitated KClO4 was pelleted at 25000×g for 20 min and the supernatant was lyophilised.
(§4) The lyophilised extract residues were dissolved in 0.5 ml of a D2O buffer (99.9% D) containing 30 mM sodium phosphate and 0.1 mM sodium azide (pH 7.02). For quantitative analysis a reference capillary (1.5 mm OD, 0.99 mm ID) was filled with a solution of 11 mM trimethylsilyl-2,2,3,3-tetradeuteropropanoic acid (TSP, sodium salt) in the D2O buffer described above. Subsequently, the capillary was sealed in the flame of a Bunsen burner. A calibration solution was prepared by placing weighed amounts of glucose and citric acid in the D2O buffer to give the calculated concentrations of 10.49 mM glucose and 4.95 […]. ^1H-NMR spectra of the calibration solution+capillary were acquired at 600 MHz (Avance AV-600, Bruker BioSpin GmbH) using a standard 5-mm NMR tube and a triple-resonance inverse probe under the same conditions to be used for the extracts (20° C., presaturation of residual HDO signal, repetition time TR=7 s, 30° flip angle). […] Cell extracts were measured with the calibrated reference capillary inserted (512 transients in 1 hour), and the ^1H-NMR signals for the branched-chain amino acids, various metabolites, and the TSP reference were integrated. The TSP integral was defined as 4.60 mM so that the metabolite signal integrals gave directly the metabolite concentrations in mM (μmol/ml) for the 0.5 ml volumes used.

U-87MG cells = experiment: as above; conditions: 20 mM gabapentin for 20 hours vs control
Procedure: as §2, §3, §4

[1] = tested on: glioblastoma cell lines U87-MG, HS683 and U373-MG; experiment: Click-iT EdU cell proliferation assay after gabapentin treatment; conditions: concentration-dependent
Procedure: as §2
To assess the proliferation of glioma cells after treatment with gabapentin or after lentiviral knockdown, the Click-iT® EdU cell proliferation assay (Invitrogen, Karlsruhe, Germany) was used following the manufacturer's instructions. The cells were incubated with 10 μM of the nucleoside analog EdU (5-ethynyl-2′deoxyuridine) for 16 hours. Quantification of cells that incorporated EdU was performed using FACS Canto II (BD Biosciences).
The human glioblastoma cell lines U87-MG (HTB-14), HS683 (HTB-138) and U373-MG (HTB-17; LGC Standards, Teddington TW11 0LY U.K.) were cultured in Dulbecco's Minimal Essential Medium supplemented with 10% fetal calf serum and 1% penicillin/streptomycin-mix. 5×10^4 cells/well were seeded in 24 well plates in a total volume of 500 μl cell culture medium. […]

glioma cell lines = experiment: Cell-cycle analysis, G1 phase; conditions: gabapentin treatment, 20 hours
Procedure: as §1

BCAT1 expression = experiment: BCAT1 RNA and protein expression (qRT-PCR, Western blot) in glioma cell lines; conditions: increasing concentration of dimethyl-alpha-KG in the culture medium (5 mM or 10 mM)
Procedure: Total RNA was extracted using the AllPrep DNA/RNA/Protein Mini Kit (Qiagen) according to the manufacturer's instructions. FirstChoice® Human Brain Reference Total RNA from Ambion served as normal brain RNA pool (n=23 donors). Total RNA (500 ng) was reverse-transcribed using random primers and superscript II (Invitrogen, Karlsruhe, Germany) according to the manufacturer's instructions. Each complimentary DNA sample was analysed in triplicate with the Applied Biosystems Prism 7900HT Fast Real-Time PCR System (Applied Biosystems, Foster City, Calif., USA) using Absolute SYBR Green ROX Mix (ABgene, Epsom, UK). The relative amount of specific mRNA was normalised to ARF, B2M and TBP.
All experiments involving the use of human tissues are carries out in line with the guidelines of the institutional review board of the Medical Faculty at Heinrich Heine University Dusseldorf. Fresh frozen human tumor tissue samples and a non-neoplastic brain tissue sample were lysed in guanidine isothiocyanate solution (4M) using an ULTRA-TURRAX (IKA, Staufen, Germany) and subjected to CsCl-ultracentrifugation. […]
Infection of glioma cells with virus at an M.O.I. of 2 was carried out in the presence of 8 μg/ml of polybrene (Chemicon, Billerica, Mass., USA). […] Quantification of BCAT1 and IDH1 knockdown was assessed by quantitative real-time PCR and Western blot. […]

`NCC1(CC(=O)O)CCCCC1` [Gabapentin, 1-(aminomethyl) cyclohexaneacetic acid] was tested, and the “Average sub-G1” value (U373-MG) was 2.8%, the “Average sub-G1” value (HS683) was 10.1% and the “Average sub-G1” value (U87-MG) was 2.4%. The Glutamate release (glioma cells) was “significantly reduced”, the “increase of isoleucine (Ile) level, factor” value (U-373MG cells) was 2.32 and the “increase of leucine (Leu) level, factor” value (U-373MG cells) was 2.18. For the same compound, the “increase of valine (Val) level, factor” value (U-373MG cells) was 1.83, the “increase of isoleucine (Ile) level, factor” value (U-87MG cells) was 1.19 and the “increase of leucine (Leu) level, factor” value (U-87MG cells) was 1.38. For the same compound, the “increase of valine (Val) level, factor” value (U-87MG cells) was 1.09, the “reduction of cell proliferation” value ([1]; 5, 10 and 20 mM, all cell lines, vs mock treated cells (Example 2)) was 20-55% and the “reduction of proliferation, estimated based on EdU-incorporation” value ([1]; 20 hours (Example 9, FIG. 6a)) was “up to 56%”. The “cell cycle effect (fraction of cells in G1-phase)” value (glioma cell lines) was “partial G1-arrest”.
`COC(=O)CCC(=O)C(=O)OC` [dimethyl-alpha-KG, Dimethyl 2-oxoglutarate] was tested, and the BCAT1 expression (BCAT1 expression) was “upregulated”.
